Earlier results as cited in US9585842B2, “Sustained release guanfacine HCL formulation” (SALMON PHARMA GMBH, priority 2013, dated 2017).
Where a name gives a salt, the structure may show the parent alone.

Conditions: low pH versus higher pH values

In the case of `N=C(N)NC(=O)Cc1c(Cl)cccc1Cl` [Guanfacine hydrochloride], the pH dependent solubility is listed as “more soluble at low pH values than higher pH values”.
